31 molecules from ChEMBL document CHEMBL4043102, “Novel 4-acetamide-2-alkylthio-N-acetanilides resembling nimesulide: Synthesis, cell viability evaluation and in silico studies” (Bioorg Med Chem, 2017) can be followed below.

The source made the active and inactive calls. The rule behind the calls is not given here. A value given as a limit tells only on which side of the number the result lay.

Data set [1] concerns MCF7. In words: Antiproliferative activity against human MCF7 cells assessed as cell proliferation at 30 uM after 48 hrs by MTT assay relative to control. Particulars: MCF7, 48 h, read-out: Activity. The format is functional.
Data set [2] relates to MCF7. As to the kind of experiment: Antiproliferative activity against human MCF7 cells after 48 hrs by MTT assay. Conditions: MCF7, 48 h. In kind it is functional, cell-based. Background: Formazan colour is commonly taken as a measure of viable cells.
A short description of data set [3]: Antiproliferative activity against NHDF assessed as cell proliferation at 30 uM after 48 hrs by MTT assay relative to control. Particulars: human, NHDF cells; read-out: Activity. In kind it is cell-based.
The test system of data set [4] is LNCaP. As to the kind of experiment: Antiproliferative activity against human LNCAP cells assessed as cell proliferation at 30 uM after 48 hrs by MTT assay relative to control. In kind it is functional. Conditions: read-out: Activity.
The subject of data set [5] is MCF7. As to the kind of experiment: Induction of morphological changes in human MCF7 cells assessed as cell rounding at 30 uM after 24 hrs by propidium iodide staining-based microscopic analysis. The format is functional.
The test system of data set [6] is LNCaP. In words: Antiproliferative activity against human LNCAP cells after 48 hrs by MTT assay. In kind it is functional, cell-based.
Data set [7] deals with MCF7. As to the kind of experiment: Induction of apoptosis in human MCF7 cells assessed as reduction in viable cells at 30 uM after 24 hrs by propidium iodide staining based FACS analysis. The format is functional, cell-based.
Data set [8] in a line: Antiproliferative activity against NHDF assessed as cell proliferation at 1 mM after 48 hrs by MTT assay relative to control. Particulars: human, NHDF cells.
Data set [9] has as its system MCF7. In words: Antiproliferative activity against human MCF7 cells assessed as cell proliferation at 1 mM after 48 hrs by MTT assay relative to control. Conditions: MCF7, 48 h, read-out: Activity.
Data set [10] concerns LNCaP. In words: Antiproliferative activity against human LNCAP cells assessed as cell proliferation at 1 mM after 48 hrs by MTT assay relative to control. Conditions: read-out: Activity.
Data set [11] concerns MCF7. In words: Induction of apoptosis in human MCF7 cells assessed as reduction in viable cells at 30 uM after 24 hrs by propidium iodide staining-based microscopic analysis. The format is functional, cell-based.

For the molecule `CCN(CC)c1ccccc1SC`, the growth at 30 µM in [1] came to 97.2%.
In the case of `CCSc1ccccc1N(Cc1ccccc1)C(C)=O`, the growth at 30 µM in data set [1] is 89.4%.
Still for that read-out and setting: then `CCOc1ccccc1N(Cc1ccccc1)C(C)=O`, with 87.6%.
As usually defined, the IC50 is the midpoint of a concentration-inhibition curve. High values mean weaker potency in that assay, low ones greater potency in that assay. As to `CC(=O)Nc1ccc(N(Cc2ccc(C)cc2C)C(C)=O)c(SCc2ccc(C)cc2C)c1`, half-maximal inhibition in data set [2] (IC50) was put at 7.33 µM. Moreover, the viability at 48 h, 30 µM in data set [3] was 89.9%. The growth at 30 µM in data set [4] is 48%; in data set [1] it was 15.3%.
In the case of `CC(=O)Nc1ccc(N(CC2CCCCC2)C(C)=O)c(SCC2CCCCC2)c1`, the IC50 came to 16.6 µM in data set [2] and 9.16 µM in [6]. The outcome in data set [5] and in [7] was Active. Moreover, the viability at 48 h, 30 µM in [3] was 86.2%. Further, the growth at 30 µM in data set [4] came out at 29.7%; in [1], 7.52%.
Regarding `OO` [HYDROGEN PEROXIDE], the viability at 48 h, 1000 µM in [8] is 15.5%. Also, the growth at 1000 µM in data set [9] turned out to be 4.44%; in data set [10], 2.15%.
For `CCCCCCSc1cc(NC(C)=O)ccc1N(Cc1ccc(C)cc1C)C(C)=O`, the concentration for half-maximal inhibition (IC50) in [2] worked out at 21.6 µM; in [6], 13.9 µM. In addition, the outcome in data set [5] and in [7] was Active. Further, in [3], the viability at 48 h, 30 µM is 80.1%. For the same molecule, the growth at 30 µM amounted to 19.1% in data set [4] and 6.86% in data set [1].
`CS(=O)(=O)Nc1ccc([N+](=O)[O-])cc1Oc1ccccc1` [NIMESULIDE]: the concentration for half-maximal inhibition (IC50) was above 100 µM in data set [2] and 26.7 µM in [6]. Further, the viability at 48 h, 30 µM in data set [3] is 89.3%. Further, the result in data set [11] and in data set [7] was Active. Moreover, the growth at 30 µM in data set [4] was determined as 73.8%; in data set [1], 42.5%.
In data set [2], `CC(=O)Nc1ccc(N(Cc2ccc(C)cc2C)C(C)=O)c(SCC2CCCCC2)c1` gave an IC50 of 25.2 µM. Also, the viability at 48 h, 30 µM in [3] was 80.5%. The values for the growth at 30 µM in data set [4] and in data set [1] were 40.4% and 13.6%, respectively.
As for `CCCCCCOc1ccccc1N(CC)C(C)=O`, the growth at 30 µM in data set [1] was found to be 55.5%.
The molecule `CCCCCCN(C(C)=O)c1ccc(NC(C)=O)cc1SCc1ccc(C)cc1C` had a half-inhibitory concentration (IC50) in [2] of 20.7 µM. Moreover, in data set [3], the viability at 48 h, 30 µM amounted to 83%. The growth at 30 µM in [4] is 88.5%; in [1], 11.1%.
Molecule `CCCCCCSc1cc(NC(C)=O)ccc1N(CC1CCCCC1)C(C)=O` displayed an IC50 in [2] of 21 µM. For the same molecule, the viability at 48 h, 30 µM in data set [3] is 82.8%. Besides, the growth at 30 µM in [4] stood at 49.8%; in [1], 24.2%.
Take `CCCN(C(C)=O)c1ccccc1SC`: the growth at 30 µM in data set [1] was determined as 95.3%.
As for `CCSc1ccccc1N(CC)C(C)=O`, the growth at 30 µM in data set [1] came to 99.5%.
The same measure, in the same setting: then `CCOc1ccccc1N(CC)C(C)=O`, with 93.5%; and `CCSc1ccccc1N(Cc1ccccc1C)C(C)=O`, with 77%.
As to `CCCCCCSc1cc(NC(C)=O)ccc1N(CCCCCC)C(C)=O`, the concentration for half-maximal inhibition (IC50) in data set [2] stood at 24.9 µM. Also, the viability at 48 h, 30 µM in data set [3] was determined as 93.6%. Also, the values for the growth at 30 µM in data set [4] and in [1] were 73.9% and 36.6%, respectively.
In the case of `CC(=O)N(Cc1ccccc1C)c1ccccc1SCc1ccccc1C`, in data set [1], the growth at 30 µM worked out at 13.7%.
For `CCCOc1ccccc1N(CC)C(C)=O`, the growth at 30 µM in data set [1] was determined as 92.5%.
On the same count and under the same terms, the same measure for `CCSc1ccccc1N(CC)CC`: 99.7%.
In the case of `CC(=O)Nc1ccc(N(CC2CCCCC2)C(C)=O)c(SCc2ccc(C)cc2C)c1`, the half-inhibitory concentration (IC50) in [2] was determined as 20.8 µM; in data set [6], 9.71 µM. For the same molecule, the viability at 48 h, 30 µM in data set [3] stood at 79.7%. Also, the growth at 30 µM in [4] is 23%; in data set [1], 9.08%.
For the molecule `CCN(C(C)=O)c1ccccc1SCc1ccccc1`, the growth at 30 µM in [1] turned out to be 95.3%.
The same measure, in the same setting: the same measure for `CCCCCCSc1ccccc1N(CC)C(C)=O`: 67.7%; for `CCCCCCN(C(C)=O)c1ccccc1OCCC`: 51.5%.
Take `CCCCCCSc1cc([N+](=O)[O-])ccc1N(CCCCCC)C(C)=O`: the viability at 48 h, 30 µM in [3] worked out at 111%. In addition, the results for the growth at 30 µM in data set [4] and in [1] were 92.3% and 65.9%, respectively.
In data set [2], `CCCCCCN(C(C)=O)c1ccc(NC(C)=O)cc1SCC1CCCCC1` returned an IC50 of 20.4 µM. For the same molecule, the viability at 48 h, 30 µM in [3] amounted to 98.2%. In addition, the growth at 30 µM in data set [4] was determined as 117%; in data set [1], 35.9%.
Consider `CCN(C(C)=O)c1ccccc1OCc1ccccc1`, for which the growth at 30 µM in [1] is 88.8%.
For the molecule `O=c1[nH]cc(F)c(=O)[nH]1` [FLUOROURACIL], the half-inhibitory concentration (IC50) in data set [2] is 3.18 µM; in [6], 5.21 µM. For the same molecule, in [3], the viability at 48 h, 30 µM was determined as 86.8%. In addition, the result in [11] and in [7] was Active. Further, the values for the growth at 30 µM in data set [4] and in data set [1] were 58.8% and 28.3%, respectively.
`CCCCCCN(C(C)=O)c1ccccc1SCCC`: the growth at 30 µM in data set [1] turned out to be 47.6%.
Regarding `CC(=O)N(Cc1ccccc1)c1ccccc1SCc1ccccc1`, the growth at 30 µM in data set [1] was found to be 79.8%.
The same measure, in the same setting: the same measure for `CCCSc1ccccc1N(CC)C(C)=O`: 89.1%.
